Data from PubChem BioAssay (NCI).
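Here, GI50 denotes the concentration required for 50% inhibition of growth. TGI denotes the concentration required for complete inhibition of growth.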

How the values were obtained:
Experiment in all cases: inhibition of tumour cell growth, NCI panel, 384-well format
[1] = test system: RXF 393 renal
[2] = test system: TK-10 renal
[3] = test system: DU-145 prostate
[4] = test system: SF-268 CNS
[5] = test system: A498 renal
[6] = test system: SF-539 CNS
[7] = test system: EKVX NSCLC
[8] = test system: UO-31 renal
[9] = test system: MOLT-4 leukemia
[10] = test system: COLO 205 colon
[11] = test system: NCI-H460 NSCLC
[12] = test system: SF-295 CNS
[13] = test system: SNB-75 CNS
[14] = test system: HS 578T breast
[15] = test system: BT-549 breast
[16] = test system: HL-60(TB) leukemia
[17] = test system: OVCAR-4 ovarian
[18] = test system: LOX IMVI melanoma
[19] = test system: UACC-62 melanoma
[20] = test system: SN12C renal
[21] = test system: NCI-H23 lung
[22] = test system: ACHN renal
[23] = test system: HCT-116 colon
[24] = test system: MDA-MB-435 melanoma
[25] = test system: 786-0 renal
[26] = test system: KM12 colon
[27] = test system: NCI-H522 lung
[28] = test system: MALME-3M melanoma
[29] = test system: HCC-2998 colon
[30] = test system: SK-MEL-28 melanoma
[31] = test system: CAKI-1 renal
[32] = test system: OVCAR-5 ovarian
[33] = test system: RPMI-8226 leukemia
[34] = test system: SNB-19 CNS
[35] = test system: HOP-62 NSCLC
[36] = test system: IGROV1 ovarian
[37] = test system: OVCAR-3 ovarian
[38] = test system: MDA-MB-231 breast
[39] = test system: MCF7 breast
[40] = test system: PC-3 prostate
[41] = test system: U251 glioblastoma
[42] = test system: M14 melanoma
[43] = test system: NCI-H226 lung
[44] = test system: K-562 leukemia
[45] = test system: SK-MEL-2 melanoma
[46] = test system: MDA-MB-468 breast
[47] = test system: A549 NSCLC
[48] = test system: OVCAR-8 ovarian
[49] = test system: HOP-92 NSCLC
[50] = test system: SW-620 colon
[51] = test system: SK-MEL-5 melanoma
[52] = test system: UACC-257 melanoma
[53] = test system: SK-OV-3 ovarian
[54] = test system: HCT-15 colon
[55] = test system: NCI/ADR-RES ovarian
[56] = test system: NCI-H322M lung
[57] = test system: T-47D breast
[58] = test system: CCRF-CEM leukemia
[59] = test system: HT29 colon

Q: Which results are given for C#CC(F)(F)[C@]1(O)CC[C@H]2[C@@H]3CCC4=CC(=O)CCC4=C3[C@@H](c3ccc(C4CC4)cc3)C[C@@]21C?
A: GI50 [1]: < 0.01 µM; TGI [1]: < 0.01 µM; GI50 [2]: 0.0214 µM; TGI [2]: 0.104 µM; GI50 [3]: 1.54 µM; TGI [3]: 3.18 µM; GI50 [4]: 0.0112 µM; TGI [4]: 0.0258 µM; GI50 [5]: 0.0132 µM; TGI [5]: 0.0261 µM; GI50 [6]: 0.0172 µM; TGI [6]: 0.032 µM; GI50 [7]: < 0.01 µM; TGI [7]: 0.0109 µM; GI50 [8]: < 0.01 µM; TGI [8]: < 0.01 µM; GI50 [9]: 0.0174 µM; TGI [9]: 0.0316 µM; GI50 [10]: 1.32 µM; TGI [10]: 4.58 µM; GI50 [11]: 1.85 µM; TGI [11]: 3.41 µM; GI50 [12]: 0.0302 µM; TGI [12]: 0.0834 µM; GI50 [13]: 0.0142 µM; TGI [13]: 0.0282 µM; GI50 [14]: 0.377 µM; TGI [14]: 1.51 µM; GI50 [15]: 0.0203 µM; TGI [15]: 0.0422 µM; GI50 [16]: < 0.01 µM; TGI [16]: < 0.01 µM; GI50 [17]: < 0.01 µM; TGI [17]: < 0.01 µM; GI50 [18]: < 0.01 µM; TGI [18]: < 0.01 µM; GI50 [19]: 0.0176 µM; TGI [19]: 0.0328 µM; GI50 [20]: 2.01 µM; TGI [20]: 4.06 µM; GI50 [21]: < 0.01 µM; TGI [21]: < 0.01 µM; GI50 [22]: < 0.01 µM; TGI [22]: < 0.01 µM; GI50 [23]: 1.76 µM; TGI [23]: 3.35 µM; GI50 [24]: 1.25 µM; TGI [24]: 3.51 µM; GI50 [25]: 0.0107 µM; TGI [25]: 0.024 µM; GI50 [26]: 0.012 µM; TGI [26]: 0.0255 µM; GI50 [27]: < 0.01 µM; TGI [27]: < 0.01 µM; GI50 [28]: < 0.01 µM; TGI [28]: < 0.01 µM; GI50 [29]: 0.0239 µM; TGI [29]: 0.0507 µM; GI50 [30]: 2.03 µM; TGI [30]: 4.34 µM; GI50 [31]: < 0.01 µM; TGI [31]: < 0.01 µM; GI50 [32]: 0.574 µM; TGI [32]: 2.41 µM; GI50 [33]: < 0.01 µM; TGI [33]: 0.0186 µM; GI50 [34]: 3.02 µM; TGI [34]: 8.61 µM; GI50 [35]: < 0.01 µM; TGI [35]: 0.0411 µM; GI50 [36]: < 0.01 µM; TGI [36]: < 0.01 µM; GI50 [37]: < 0.01 µM; TGI [37]: < 0.01 µM; GI50 [38]: < 0.01 µM; TGI [38]: < 0.01 µM; GI50 [39]: 1.48 µM; TGI [39]: 7.97 µM; GI50 [40]: 0.0196 µM; TGI [40]: 0.0518 µM; GI50 [41]: 0.0975 µM; TGI [41]: 0.444 µM; GI50 [42]: 0.0376 µM; TGI [42]: 0.146 µM; GI50 [43]: 0.218 µM; TGI [43]: 2 µM; GI50 [44]: 0.111 µM; TGI [44]: 0.32 µM; GI50 [45]: 0.0646 µM; TGI [45]: 0.244 µM; GI50 [46]: < 0.01 µM; TGI [46]: < 0.01 µM; GI50 [47]: 0.0395 µM; TGI [47]: 0.19 µM; GI50 [48]: 0.0616 µM; TGI [48]: 0.934 µM; GI50 [49]: < 0.01 µM; TGI [49]: < 0.01 µM; GI50 [50]: 0.334 µM; TGI [50]: 1.39 µM; GI50 [51]: 1.7 µM; TGI [51]: 3.1 µM; GI50 [52]: 0.459 µM; TGI [52]: 2.11 µM; GI50 [53]: 0.0342 µM; TGI [53]: 0.111 µM; GI50 [54]: 0.245 µM; TGI [54]: 2.3 µM; GI50 [55]: 0.012 µM; TGI [55]: 0.0448 µM; GI50 [56]: 2.48 µM; TGI [56]: 6.89 µM; GI50 [57]: 0.0806 µM; TGI [57]: 1.77 µM; GI50 [58]: < 0.01 µM; TGI [58]: < 0.01 µM; GI50 [59]: 0.267 µM; TGI [59]: 1.18 µM
